Blank lines part the entries; values can stand above or below the molecule they belong to.
Experiments:
[1] = system: Glomerella lacenarium (Colletotrichum lacenarium); assay: Glomerella lacenarium (Colletotrichum lacenarium) liquid culture / cucumber / preventative (anthracnose); type: cell-based; details: 20 ppm in the applied formulation, growth inhibition measured photometrically, compared to untreated control, read-out: disease control
Description: Mycelia fragments or conidia suspensions of a fungus prepared either freshly from liquid cultures of the fungus or from cryogenic storage, are directly mixed into nutrient broth. DMSO solutions of the test compound (max. 10 mg/ml) are diluted with 0.025% Tween20 by a factor of 50 and 10 μl of this solution is pipetted into a microtiter plate (96-well format). The nutrient broth containing the fungal spores/mycelia fragments is then added to give an end concentration of the tested compound. The test plates are incubated in the dark at 24° C. and 96% relative humidity. The inhibition of fungal growth is determined photometrically after 2 to 7 days, depending on the pathosystem, and percent antifungal activity relative to the untreated check is calculated.
Conidia of the fungus from cryogenic storage are directly mixed into nutrient broth (PDB—potato dextrose broth). After placing a (DMSO) solution of test compound into a microtiter plate (96-well format), the nutrient broth containing the fungal spores is added. The test plates are incubated at 24° C. and the inhibition of growth is measured photometrically 3 to 4 days after application.
The following compounds at 20 ppm in the applied formulation give at least 80% disease control in this test when compared to untreated control under the same conditions, which show extensive disease development.

[2] = system: Puccinia recondita f. Sp. tritici; assay: Puccinia recondita f. sp. tritici / wheat / leaf disc curative (brown rust); type: in vivo; details: foliar, 200 ppm in the applied formulation, compared to untreated control, read-out: disease control
Description: (§1) Leaf disks or leaf segments of various plant species are cut from plants grown in a greenhouse. The cut leaf disks or segments are placed in multiwell plates (24-well format) onto water agar. The leaf disks are sprayed with a test solution before (preventative) or after (curative) inoculation. Compounds to be tested are prepared as DMSO solutions (max. 10 mg/ml) which are diluted to the appropriate concentration with 0.025% Tween20 just before spraying. The inoculated leaf disks or segments are incubated under defined conditions (temperature, relative humidity, light, etc.) according to the respective test system. A single evaluation of disease level is carried out 3 to 14 days after inoculation, depending on the pathosystem. Percent disease control relative to the untreated check leaf disks or segments is then calculated.
Wheat leaf segments cv. Kanzler are placed on agar in multiwell plates (24-well format). The leaf segments are then inoculated with a spore suspension of the fungus. Plates were stored in darkness at 19° C. and 75% relative humidity. The formulated test compound diluted in water was applied 1 day after inoculation. The leaf segments were incubated at 19° C. and 75% relative humidity under a light regime of 12 hours light/12 hours darkness in a climate cabinet and the activity of a compound was assessed as percent disease control compared to untreated when an appropriate level of disease damage appears in untreated check leaf segments (6 to 8 days after application).
(§2) The following compounds at 200 ppm in the applied formulation give at least 80% disease control in this test when compared to untreated control leaf disks under the same conditions, which show extensive disease development.

[3] = system: Puccinia recondita f. Sp. tritici; assay: Puccinia recondita f. sp. tritici / wheat / leaf disc preventative (brown rust); type: in vivo; details: foliar, 200 ppm in the applied formulation, compared to untreated control, read-out: disease control
Description: as §1, with “calculated. Wheat leaf segments cv. Kanzler were placed on agar in multiwell plates (24-well format) and sprayed with the formulated test compound diluted in water. The leaf disks were inoculated with a spore suspension of the fungus 1 day after application. The inoculated leaf segments were incubated at 19° C. and 75% relative humidity (rh) under a light regime of 12 hours light/12 hours darkness in a climate cabinet and the activity of a compound was assessed as percent disease control compared to untreated when an appropriate level of disease damage appears in untreated check leaf segments (7 to 9 days after application). The following compounds at 200 ppm in the applied formulation give at least 80% disease control in this test when compared to untreated control leaf disks under the same conditions, which show extensive disease development.” for “calculated.”

Phakopsora pachyrhizi = Phakopsora pachyrhizi / soybean / leaf disc preventative (Asian soybean rust); type: in vivo; details: foliar, 200 ppm in the applied formulation, compared to untreated control, read-out: disease control
Description: as §1
Soybean leaf disks are placed on water agar in multiwell plates (24-well format) and sprayed with the formulated test compound diluted in water. One day after application leaf discs are inoculated by spraying a spore suspension on the lower leaf surface. After an incubation period in a climate cabinet of 24-36 hours in darkness at 20° C. and 75% rh leaf disc are kept at 20° C. with 12 h light/day and 75% rh. The activity of a compound is assessed as percent disease control compared to untreated when an appropriate level of disease damage appears in untreated check leaf disks (12 to 14 days after application).
as §2

- melting point: 66 to 68 °C
SMILES: CCC(O)c1ccc(-c2noc(C(F)(F)F)n2)cc1 (stereo not drawn) [Compound 2.16, 1-[4-[5-(trifluoromethyl)-1,2,4-oxadiazol-3-yl]phenyl]propan-1-ol]
- inhibition of growth at 20 ppm [1]: ≥ 80%

- melting point: 118 to 122 °C
SMILES: CCOC(=O)c1csc(C(O)c2ccc(-c3noc(C(F)(F)F)n3)cc2)n1 (stereo not drawn) [Compound 2.19, ethyl 2-[hydroxy-[4-[5-(trifluoromethyl)-1,2,4-oxadiazol-3-yl]phenyl]methyl]thiazole-4-carboxylate]
- pest or weed control at 200 ppm [3]: ≥ 80%

- melting point: 45 to 48 °C
SMILES: C=CCC(O)c1ccc(-c2noc(C(F)(F)F)n2)cc1 (stereo not drawn) [Compound 2.17, 1-[4-[5-(trifluoromethyl)-1,2,4-oxadiazol-3-yl]phenyl]but-3-en-1-ol]
- pest or weed control at 200 ppm (Phakopsora pachyrhizi): ≥ 80%
- inhibition of growth at 20 ppm [1]: ≥ 80%

- melting point: 60 to 75 °C
SMILES: CC(C)(C)C(O)c1ccc(-c2noc(C(F)(F)F)n2)cc1 (stereo not drawn) [Compound 2.1, 2,2-dimethyl-1-[4-[5-(trifluoromethyl)-1,2,4-oxadiazol-3-yl]phenyl]propan-1-ol]
- pest or weed control at 200 ppm (Phakopsora pachyrhizi): ≥ 80%
- inhibition of growth at 20 ppm [1]: ≥ 80%

- melting point: 79 to 80 °C
SMILES: N#CC(O)c1ccc(-c2noc(C(F)(F)F)n2)cc1 (stereo not drawn) [Compound 2.11, 2-hydroxy-2-[4-[5-(trifluoromethyl)-1,2,4-oxadiazol-3-yl]phenyl]acetonitrile]
- inhibition of growth at 20 ppm [1]: ≥ 80%
- pest or weed control at 200 ppm [3]: ≥ 80%

Continued, molecule first:

SMILES: C=CCC(O)(c1ccc(-c2noc(C(F)(F)F)n2)cc1)c1cc(C)no1 (stereo not drawn) [Compound 2.23, 1-(3-methylisoxazol-5-yl)-1-[4-[5-(trifluoromethyl)-1,2,4-oxadiazol-3-yl]phenyl]but-3-en-1-ol]
- pest or weed control at 200 ppm [2]: ≥ 80%

SMILES: Cc1cc(C(O)(c2ccc(-c3noc(C(F)(F)F)n3)cc2)C(C)C)on1 (stereo not drawn) [Compound 2.29, 2-methyl-1-(3-methylisoxazol-5-yl)-1-[4-[5-(trifluoromethyl)-1,2,4-oxadiazol-3-yl]phenyl]propan-1-ol]
- pest or weed control at 200 ppm [3]: ≥ 80%

SMILES: CCOC(=O)c1csc(C(=O)c2ccc(-c3noc(C(F)(F)F)n3)cc2)n1 [Compound 1.25, ethyl 2-[4-[5-(trifluoromethyl)-1,2,4-oxadiazol-3-yl]benzoyl]thiazole-4-carboxylate]
- melting point: 78 to 82 °C

SMILES: CCCCC(=O)c1ccc(-c2noc(C(F)(F)F)n2)cc1 [Compound 1.5, 1-[4-[5-(trifluoromethyl)-1,2,4-oxadiazol-3-yl]phenyl]pentan-1-one]
- inhibition of growth at 20 ppm [1]: ≥ 80%
- melting point: 57 to 61 °C

SMILES: OC(c1ccc(-c2noc(C(F)(F)F)n2)cc1)c1ccc(F)cc1F (stereo not drawn) [Compound 2.15, (2,4-difluorophenyl)-[4-[5-(trifluoromethyl)-1,2,4-oxadiazol-3-yl]phenyl]methanol]
- pest or weed control at 200 ppm (Phakopsora pachyrhizi): ≥ 80%
- inhibition of growth at 20 ppm [1]: ≥ 80%
- pest or weed control at 200 ppm [3]: ≥ 80%

SMILES: Cc1ccc(C(O)c2ccc(-c3noc(C(F)(F)F)n3)cc2)nc1 (stereo not drawn) [Compound 2.21, (5-methyl-2-pyridyl)-[4-[5-(trifluoromethyl)-1,2,4-oxadiazol-3-yl]phenyl]methanol]
- pest or weed control at 200 ppm [3]: ≥ 80%
- pest or weed control at 200 ppm [2]: ≥ 80%

SMILES: O=C(c1ccc(-c2noc(C(F)(F)F)n2)cc1)c1ncc(C(F)(F)F)s1 [Compound 1.21, [4-[5-(trifluoromethyl)-1,2,4-oxadiazol-3-yl]phenyl]-[5-(trifluoromethyl)thiazol-2-yl]methanone]
- melting point: 90 to 94 °C

SMILES: CCOC(=O)c1cc(C(=O)c2ccc(-c3noc(C(F)(F)F)n3)cc2)on1 [Compound 1.22, ethyl 5-[4-[5-(trifluoromethyl)-1,2,4-oxadiazol-3-yl]benzoyl]isoxazole-3-carboxylate]
- inhibition of growth at 20 ppm [1]: ≥ 80%
- melting point: 197 to 200 °C

SMILES: CCOC(=O)c1cnc(C(=O)c2ccc(-c3noc(C(F)(F)F)n3)cc2)nc1C [Compound 1.31, ethyl 4-methyl-2-[4-[5-(trifluoromethyl)-1,2,4-oxadiazol-3-yl]benzoyl]pyrimidine-5-carboxylate]
- inhibition of growth at 20 ppm [1]: ≥ 80%
- melting point: 92 to 93 °C

SMILES: Cc1cncc(C(=O)c2ccc(-c3noc(C(F)(F)F)n3)cc2)c1 [Compound 1.36, (5-methyl-3-pyridyl)-[4-[5-(trifluoromethyl)-1,2,4-oxadiazol-3-yl]phenyl]methanone]
- melting point: 80 to 84 °C

SMILES: CCOC(=O)c1cnn(CC(=O)c2ccc(-c3noc(C(F)(F)F)n3)cc2)c1 [Compound 1.19, ethyl 1-[2-oxo-2-[4-[5-(trifluoromethyl)-1,2,4-oxadiazol-3-yl]phenyl]ethyl]pyrazole-4-carboxylate]
- melting point: 153.6 to 156.1 °C

SMILES: Cc1ncc(C(=O)c2ccc(-c3noc(C(F)(F)F)n3)cc2)s1 [Compound 1.34, (2-methylthiazol-5-yl)-[4-[5-(trifluoromethyl)-1,2,4-oxadiazol-3-yl]phenyl]methanone]
- inhibition of growth at 20 ppm [1]: ≥ 80%
- melting point: 116 to 120 °C
- pest or weed control at 200 ppm [2]: ≥ 80%

SMILES: O=C(c1ccc(-c2noc(C(F)(F)F)n2)cc1)c1ccc(F)cc1F [Compound 1.28, (2,4-difluorophenyl)-[4-[5-(trifluoromethyl)-1,2,4-oxadiazol-3-yl]phenyl]methanone]
- pest or weed control at 200 ppm (Phakopsora pachyrhizi): ≥ 80%
- inhibition of growth at 20 ppm [1]: ≥ 80%
- melting point: 92 to 95 °C

SMILES: O=C(c1ccc(-c2noc(C(F)(F)F)n2)cc1)c1cnn(C(F)(F)F)c1 [Compound 1.26, [4-[5-(trifluoromethyl)-1,2,4-oxadiazol-3-yl]phenyl]-[1-(trifluoromethyl)pyrazol-4-yl]methanone]
- pest or weed control at 200 ppm (Phakopsora pachyrhizi): ≥ 80%
- melting point: 98 to 102 °C

SMILES: O=C(c1ccc(-c2noc(C(F)(F)F)n2)cc1)c1cnc(C(F)(F)F)s1 [Compound 1.23, [4-[5-(trifluoromethyl)-1,2,4-oxadiazol-3-yl]phenyl]-[2-(trifluoromethyl)thiazol-5-yl]methanone]
- melting point: 126 to 132 °C

SMILES: O=C(c1ccc(-c2noc(C(F)(F)F)n2)cc1)c1cccc(OC(F)F)c1 [Compound 1.29, [3-(difluoromethoxy)phenyl]-[4-[5-(trifluoromethyl)-1,2,4-oxadiazol-3-yl]phenyl]methanone]
- pest or weed control at 200 ppm (Phakopsora pachyrhizi): ≥ 80%
- inhibition of growth at 20 ppm [1]: ≥ 80%
- melting point: 85 to 88 °C

SMILES: COc1ccc(C(=O)c2ccc(-c3noc(C(F)(F)F)n3)cc2)cn1 [Compound 1.15, (6-methoxy-3-pyridyl)-[4-[5-(trifluoromethyl)-1,2,4-oxadiazol-3-yl]phenyl]methanone]
- pest or weed control at 200 ppm (Phakopsora pachyrhizi): ≥ 80%
- inhibition of growth at 20 ppm [1]: ≥ 80%
- melting point: 105 to 110 °C

SMILES: O=C(c1ccc(-c2noc(C(F)(F)F)n2)cc1)c1cscn1 [Compound 1.32, thiazol-4-yl-[4-[5-(trifluoromethyl)-1,2,4-oxadiazol-3-yl]phenyl]methanone]
- pest or weed control at 200 ppm (Phakopsora pachyrhizi): ≥ 80%
- inhibition of growth at 20 ppm [1]: ≥ 80%
- melting point: 68 to 74 °C
